In the supplement of paper PMC10307832:

Key:
Experiment in all cases: relative viability (nuclei count vs DMSO), 5 days (fraction); higher = more cells survive
CUDC-101 + Luminespib = compound: C#Cc1cccc(Nc2ncnc3cc(OC)c(OCCCCCCC(=O)NO)cc23)c1 [CUDC-101] + CCNC(=O)c1noc(-c2cc(C(C)C)c(O)cc2O)c1-c1ccc(CN2CCOCC2)cc1 [Luminespib] (partner 0.01 µM)
Method in brief: (§1)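 Lung cancer cell lines, seeded in 1536-well plates, were treated the following day by pin tool with a single drug or with five library-drug doses (not always all listed) in √10 steps on top of a fixed anchor-drug dose. Cells were fixed and nuclei stained in one step after 5 days, and nuclei were counted. Relative viability is the nuclei count for treated wells divided by that for vehicle wells, reported as medians of duplicate plates.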

CUDC-101 + Decitabine = compound: C#Cc1cccc(Nc2ncnc3cc(OC)c(OCCCCCCC(=O)NO)cc23)c1 [CUDC-101] + Nc1ncn([C@H]2C[C@H](O)[C@@H](CO)O2)c(=O)n1 [Decitabine] (partner 2 µM)
Method in brief: as §1

NVP-TAE684 + Phenformin = compound: COc1cc(N2CCC(N3CCN(C)CC3)CC2)ccc1Nc1ncc(Cl)c(Nc2ccccc2S(=O)(=O)C(C)C)n1 [NVP-TAE684] + N=C(N)NC(=N)NCCc1ccccc1 [Phenformin] (partner 250 µM)
Method in brief: as §1

Vandetanib + Navitoclax = compound: COc1cc2/c(=N/c3ccc(Br)cc3F)nc[nH]c2cc1OCC1CCN(C)CC1 [Vandetanib] + CC1(C)CCC(c2ccc(Cl)cc2)=C(CN2CCN(c3ccc(C(=O)NS(=O)(=O)c4ccc(N[C@H](CCN5CCOCC5)CSc5ccccc5)c(S(=O)(=O)C(F)(F)F)c4)cc3)CC2)C1 [Navitoclax] (partner 0.5 µM)
Method in brief: as §1

Cell Line | relative viability (CUDC-101 + Luminespib; first compound 0.01 µM) | relative viability (CUDC-101 + Luminespib; first compound 0.03162 µM) | relative viability (CUDC-101 + Luminespib; first compound 0.1 µM) | relative viability (CUDC-101 + Luminespib; first compound 0.3162 µM) | relative viability (CUDC-101 + Luminespib; first compound 1 µM) | relative viability (CUDC-101 + Decitabine; first compound 0.01 µM) | relative viability (CUDC-101 + Decitabine; first compound 0.03162 µM) | relative viability (CUDC-101 + Decitabine; first compound 0.1 µM) | relative viability (CUDC-101 + Decitabine; first compound 0.3162 µM) | relative viability (CUDC-101 + Decitabine; first compound 1 µM) | relative viability (NVP-TAE684 + Phenformin; first compound 0.2 µM) | relative viability (NVP-TAE684 + Phenformin; first compound 0.6325 µM) | relative viability (NVP-TAE684 + Phenformin; first compound 2 µM) | relative viability (Vandetanib + Navitoclax; first compound 0.02 µM) | relative viability (Vandetanib + Navitoclax; first compound 0.06325 µM) | relative viability (Vandetanib + Navitoclax; first compound 0.2 µM) | relative viability (Vandetanib + Navitoclax; first compound 0.6325 µM) | relative viability (Vandetanib + Navitoclax; first compound 2 µM)
NCI-H1792 | 0.459 | 0.381 | 0.578 | 0.504 | 0.25 | 0.561 | 0.437 | 0.602 | 0.553 | 0.424 | 0.268 | 0.25 | 0.159 | 0.676 | 0.573 | 0.599 | 0.626 | 0.609
NCI-H1793 | 0.17 | 0.174 | 0.174 | 0.201 | 0.143 | 0.388 | 0.493 | 0.467 | 0.431 | 0.435 | 0.35 | 0.371 | 0.26 | 0.57 | 0.338 | 0.488 | 0.319 | 0.389
NCI-H1915 | 0.908 | 0.787 | 0.774 | 0.788 | 0.551 | 0.262 | 0.267 | 0.28 | 0.248 | 0.23 | 0.332 | 0.343 | 0.369 | 0.769 | 0.781 | 0.772 | 0.794 | 0.772
NCI-H1944 | 0.757 | 0.545 | 0.732 | 0.565 | 0.53 | 0.409 | 0.434 | 0.431 | 0.428 | 0.363 | 0.211 | 0.202 | 0.197 | 1 | 1.05 | 1.05 | 1.01 | 0.86
NCI-H1975 | 0.336 | 0.155 | 0.254 | 0.351 | 0.213 | 0.398 | 0.451 | 0.389 | 0.391 | 0.374 | 0.422 | 0.367 | 0.24 | 1.14 | 1.13 | 1.13 | 0.992 | 1.1
NCI-H1993 | 0.933 | 0.772 | 0.72 | 0.772 | 0.535 | 0.62 | 0.548 | 0.602 | 0.586 | 0.488 | 0.508 | 0.467 | 0.519 | 0.932 | 0.942 | 0.853 | 0.838 | 0.789
NCI-H2009 | 1.07 | 0.904 | 1.06 | 1.02 | 0.928 | 0.416 | 0.372 | 0.415 | 0.438 | 0.351 | 0.47 | 0.458 | 0.328 | 1.12 | 1.15 | 1.24 | 1.19 | 1.11
NCI-H2023 | 0.807 | 0.568 | 0.855 | 0.797 | 0.632 | 0.222 | 0.248 | 0.188 | 0.212 | 0.193 | 0.449 | 0.415 | 0.19 | 0.898 | 0.971 | 1.04 | 1.01 | 0.996
NCI-H2085 | 0.479 | 0.446 | 0.437 | 0.45 | 0.385 | 0.642 | 0.552 | 0.634 | 0.568 | 0.551 | 0.753 | 0.694 | 0.694 | 1.23 | 1.07 | 1.12 | 1.03 | 1
NCI-H2087 | 0.174 | 0.186 | 0.176 | 0.177 | 0.198 | 0.245 | 0.313 | 0.256 | 0.251 | 0.237 | 0.501 | 0.436 | 0.33 | 1.02 | 0.832 | 0.948 | 1.16 | 1.08
NCI-H2126 | 1.03 | 0.871 | 0.938 | 0.891 | 0.793 | 0.564 | 0.572 | 0.597 | 0.567 | 0.519 | 0.53 | 0.468 | 0.361 | 0.865 | 0.859 | 0.84 | 0.866 | 0.727
NCI-H2170 | 0.626 | 0.286 | 0.719 | 0.471 | 0.465 | 0.416 | 0.514 | 0.485 | 0.444 | 0.391 | 0.404 | 0.364 | 0.358 | 0.621 | 0.618 | 0.565 | 0.567 | 0.502
NCI-H2347 | 0.617 | 0.458 | 0.47 | 0.415 | 0.331 | 0.636 | 0.585 | 0.672 | 0.591 | 0.576 | 0.252 | 0.302 | 0.294 | 0.878 | 0.453 | 0.834 | 0.945 | 0.708
NCI-H2405 | 0.797 | 0.662 | 0.703 | 0.917 | 0.741 | 0.853 | 0.705 | 0.776 | 0.762 | 0.643 | 0.395 | 0.417 | 0.312 | 0.786 | 0.426 | 0.889 | 1.23 | 0.696
NCI-H3122 | 0.118 | 0.0939 | 0.0988 | 0.112 | 0.0815 | 0.402 | 0.4 | 0.51 | 0.461 | 0.485 | 0.156 | 0.131 | 0.125 | 0.99 | 0.998 | 1.03 | 0.994 | 1.03
PC-3 [JPC-3] | 0.739 | 0.648 | 0.64 | 0.563 | 0.301 | 0.773 | 0.717 | 0.54 | 0.723 | 0.476 | 0.477 | 0.436 | 0.454 | 0.783 | 0.738 | 0.777 | 0.719 | 0.451
PC-14 | 0.133 | 0.208 | 0.16 | 0.115 | 0.114 | 0.253 | 0.249 | 0.158 | 0.179 | 0.0808 | 0.505 | 0.488 | 0.537 | 1.02 | 0.953 | 1.07 | 0.504 | 0.307
